According to ChEMBL document CHEMBL1145242, “EB1627: a soluble prodrug of the potent anticancer cyanoguanidine CHS828” (Bioorg Med Chem Lett, 2005):
pIC50: −log10 of the molar value. In brackets after ≈: the same amount, converted by molar mass.

How the values were obtained:
[1] = Solubility at pH-7.4; format: physicochemical
[2] = Inhibition of NYH Cell line; format: functional, cell-based; details: Homo sapiens
[3] = Half life value in human serum; format: ADME, cell-free
[4] = Solubility at pH-5.5; format: physicochemical
[5] = Half life value at pH-7.4; format: ADME

Compound: COCCOCCOC(=O)OC[n+]1ccc(N/C(=N/CCCCCCOc2ccc(Cl)cc2)NC#N)cc1.[Cl-]
- solubility [1]: 14 µg/mL
- pIC50 [2]: 9.20
- half-life [3]: 27 min
- solubility [4]: 34 µg/mL
- half-life [5]: > 240 min

Compound: CC(C)[C@@H](N)C(=O)OC[n+]1ccc(N/C(=N/CCCCCCOc2ccc(Cl)cc2)NC#N)cc1
- pIC50 [2]: 8.30

Compound: COCCOCCOCCOC(=O)OC[n+]1ccc(N/C(=N/CCCCCCOc2ccc(Cl)cc2)NC#N)cc1.[Cl-]
- solubility [1]: 83 µg/mL
- pIC50 [2]: 9.30
- half-life [3]: 30 min
- solubility [4]: 1200 µg/mL
- half-life [5]: > 240 min

Compound: Cl.N#CN/C(=N\CCCCCCOc1ccc(Cl)cc1)Nc1cc[n+](COC(=O)OCCCCCCCCCN)cc1.[Cl-]
- solubility [1]: 38 µg/mL
- pIC50 [2]: 9.40
- half-life [3]: 15 min
- solubility [4]: > 1200 µg/mL
- half-life [5]: > 240 min

Compound: Cl.N#CN/C(=N\CCCCCCOc1ccc(Cl)cc1)Nc1cc[n+](COC(=O)NCCCN)cc1.[Cl-]
- solubility [1]: 250 µg/mL
- pIC50 [2]: 7.80
- half-life [3]: > 240 min
- solubility [4]: > 1200 µg/mL
- half-life [5]: > 240 min

Compound: N#CN=C(NCCCCCCOc1ccc(Cl)cc1)Nc1ccncc1 [CHS-828]
- solubility [1]: 0.5 µg/mL (≈ 1.34 µM)
- pIC50 [2]: 9.30
- solubility [4]: 2 µg/mL (≈ 5.38 µM)

Compound: COCCOCCOCCOCCOC(=O)OC[n+]1ccc(N/C(=N/C#N)NCCCCCCOc2ccc(Cl)cc2)cc1.[Cl-] [TEGLARINAD CHLORIDE]
- solubility [1]: 120 µg/mL
- pIC50 [2]: 9.10
- half-life [3]: 25 min
- solubility [4]: > 1200 µg/mL
- half-life [5]: > 240 min
